Measured values as given in article PMC9828517 (Angewandte Chemie (International Ed. in English), 2022).

Molecular target: T1, recombinant SIRT5 (His-tagged, Millipore) (Homo sapiens, UniProt Q9NXA8)
T1 sequence (Q9NXA8 37-310): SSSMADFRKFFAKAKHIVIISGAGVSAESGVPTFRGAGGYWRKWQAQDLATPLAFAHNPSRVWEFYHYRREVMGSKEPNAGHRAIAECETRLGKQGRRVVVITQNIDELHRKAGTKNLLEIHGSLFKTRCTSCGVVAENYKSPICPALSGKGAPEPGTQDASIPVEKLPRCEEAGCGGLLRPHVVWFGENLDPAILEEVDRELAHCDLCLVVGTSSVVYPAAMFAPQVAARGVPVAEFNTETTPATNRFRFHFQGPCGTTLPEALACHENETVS
Test: Mass spectrometry determination of covalent labeling
Format: binding
Conditions: Tris buffer pH 8, 24 h room temperature (7, 8: 37 °C, 48 h)

SMILES | covalent conjugate formation with SIRT5 (MALDI-TOF MS)
O=C(NCCCC[C@H](NS(=O)(=O)c1cccc(F)c1)C(=O)N[C@@H](Cc1c[nH]c2ccccc12)C(=O)NC1CCC1)c1cccc(S(=O)(=O)F)c1 [compound 2] | reacted more readily with SIRT5
O=C(NC1CCC1)[C@H](Cc1c[nH]c2ccccc12)NC(=O)[C@H](CCCCNC(=S)Nc1cccc(OS(=O)(=O)F)c1)NS(=O)(=O)c1cccc(F)c1 [compound 7] | not significantly enhanced compared to the amide analogs
O=C(NC1CCC1)[C@H](Cc1c[nH]c2ccccc12)NC(=O)[C@H](CCCCNC(=S)Nc1ccc(OS(=O)(=O)F)cc1)NS(=O)(=O)c1cccc(F)c1 [compound 8] | not significantly enhanced compared to the amide analogs
